Molecular target: T1, Estrogen receptor (Homo sapiens, UniProt P03372)
T1 sequence (P03372 whole entry): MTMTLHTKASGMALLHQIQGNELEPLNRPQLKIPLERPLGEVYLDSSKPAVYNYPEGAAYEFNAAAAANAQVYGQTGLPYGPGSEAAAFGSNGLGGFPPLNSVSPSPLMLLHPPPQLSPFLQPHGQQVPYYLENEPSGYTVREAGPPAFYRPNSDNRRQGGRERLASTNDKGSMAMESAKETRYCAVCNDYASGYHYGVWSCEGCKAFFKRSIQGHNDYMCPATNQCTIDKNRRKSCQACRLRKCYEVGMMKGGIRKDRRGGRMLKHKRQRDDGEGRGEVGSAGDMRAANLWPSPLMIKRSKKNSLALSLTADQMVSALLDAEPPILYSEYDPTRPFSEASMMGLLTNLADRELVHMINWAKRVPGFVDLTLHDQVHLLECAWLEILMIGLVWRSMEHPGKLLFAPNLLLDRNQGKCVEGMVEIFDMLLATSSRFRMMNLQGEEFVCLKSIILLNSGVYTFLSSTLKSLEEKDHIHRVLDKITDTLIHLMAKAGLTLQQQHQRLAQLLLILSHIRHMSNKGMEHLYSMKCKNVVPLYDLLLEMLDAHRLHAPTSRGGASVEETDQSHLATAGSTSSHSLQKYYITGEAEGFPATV
Test: Binding affinity for Estrogen receptor alpha

SMILES	EC50	Ki
O=c1c(-c2ccc(O)cc2)c(Oc2ccc(O)cc2)oc2cc(O)ccc12	1740 nM	–
O=c1c(-c2ccc(O)cc2)c(Sc2ccc(O)cc2)oc2cc(O)ccc12	1860 nM	–
O=c1c(-c2ccc(O)cc2)c(Oc2ccc(OCCN3CCCCC3)cc2)oc2cc(O)ccc12	200 nM	–
O=c1c(-c2ccc(O)cc2)c(Sc2ccc(OCCN3CCCCC3)cc2)oc2cc(O)ccc12	770 nM	–
O=C(c1ccc(OCCN2CCCCC2)cc1)c1oc2cc(O)ccc2c(=O)c1-c1ccc(O)cc1	–	3.9 nM

Reference: ChEMBL document CHEMBL1136709, “Synthesis and estrogen receptor binding affinities of 7-hydroxy-3-(4-hydroxyphenyl)-4H-1-benzopyran-4-ones containing a basic side chain” (Bioorg Med Chem Lett, 2003)
